Results as given in patent US20050176775A1, “Substituted pyridinones” (priority 2003, published 2005).

What was measured:
[1] = biological target: T1, human p38 kinase alpha (Homo sapiens, UniProt Q16539); assay: p38 alpha kinase assay (PHAS-I / 32P-ATP format or EGFRP / 33P-ATP format); format: biochemical; conditions: inhibition of activated human p38 kinase alpha; the text does not say which of the two in vitro formats was used
T1 construct: made in house; host or cells: E. coli DH10B
Protocol: The ability of compounds to inhibit human p38 kinase alpha was evaluated using two in vitro assay methods. In the first method, activated human p38 kinase alpha phosphorylates a biotinylated substrate, PHAS-I (phosphorylated heat and acid stable protein-insulin inducible), in the presence of gamma ^32P-ATP (^32P-ATP). PHAS-I was biotinylated prior to the assay and provides a means of capturing the substrate, which is phosphorylated during the assay. p38 Kinase was activated by MKK6. Compounds were tested in 10 fold serial dilutions over the range of 100 μM to 0.001 μM using 1% DMSO. Each concentration of inhibitor was tested in triplicate.
All reactions were carried out in 96 well polypropylene plates. Each reaction well contained 25 mM HEPES pH 7.5, 10 mM magnesium acetate and 50 μM unlabeled ATP. […] Activated human p38 kinase alpha was used at 1 μg per 50 μl reaction volume representing a final concentration of 0.3 μM. […]
Following incubation, 20 μl of reaction mixture was transferred to a high capacity streptavidin coated filter plate (SAM-streptavidin-matrix, Promega) prewetted with phosphate buffered saline. […] The plates were sealed and counted.
Compounds were tested in 10 fold serial dilutions over the range of 100 μM to 0.001 μM in 1% DMSO. […] 150 μl of Microscint 40 was then added to each well of the Microlite plate, and the plate was sealed, mixed, and counted.

T1 sequence (Q16539 whole entry): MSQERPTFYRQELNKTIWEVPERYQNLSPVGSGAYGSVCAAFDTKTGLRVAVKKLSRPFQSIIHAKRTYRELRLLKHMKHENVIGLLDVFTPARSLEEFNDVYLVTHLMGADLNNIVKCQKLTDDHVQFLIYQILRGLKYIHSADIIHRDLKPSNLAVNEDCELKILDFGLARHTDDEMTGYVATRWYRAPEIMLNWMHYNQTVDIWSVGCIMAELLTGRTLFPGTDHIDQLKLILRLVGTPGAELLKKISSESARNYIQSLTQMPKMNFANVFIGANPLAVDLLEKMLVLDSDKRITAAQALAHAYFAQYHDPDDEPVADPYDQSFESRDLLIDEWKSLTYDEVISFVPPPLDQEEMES

SMILES	IC50 [1] [µM]	melting point [°C]
Cc1ccc(C(N)=O)cc1-n1c(C)cc(OCc2ccc(F)cc2F)c(Br)c1=O (single isomer, unassigned) [Example 736, (+)-3-[3-bromo-4-[(2,4-difluorobenzyl)oxy]-6-methyl-2-oxopyridin-1(2H)-yl]-4-methylbenzamide]	< 1	
Cc1c(OCc2ccc(F)cc2F)cc(C)n(C2CCCCC2)c1=O [Example 132, 1-cyclohexyl-4-(2,4-difluorobenzyloxy)-3,6-dimethyl-1H-pyridin-2-one]		118 to 120
Cc1c(/C=N/O)c(OCc2ccc(F)cc2F)c(Br)c(=O)n1-c1c(F)cccc1F [Example 565, 5-bromo-4-[(2,4-difluorobenzyl)oxy]-1-(2,6-difluorophenyl)-2-methyl-6-oxo-1,6-dihydropyridine-3-carbaldehyde Oxime]	25 to 100	
